The values that follow come from US4005220A, “Hemostatic compositions comprising salts of substituted hydroquinone sulfonic acid” (Laboratorios del Dr. Esteve, S.A., priority 1973, dated 1977).

Entries after “also recorded” stand apart in the source; their conditions may differ. Bounds are passed on as bounds.

By LD50 is commonly meant the dose expected to kill half of the subjects tested. Lower therefore signals greater toxicity.

Series [1] deals with mice. As to the kind of experiment: Acute toxicity in mice, LD50 (method of Reed and Muench). Format: in vivo. The note with it: mice (summary table). How it is done:
(§1) 1. Acute toxicity in mice
(§2) Albino mice of 18 to 25 g. The LD50 was determined in accordance with the method of Reed and Muench.
(§3) The acute toxicity in mice was determined in accordance with the method of REED and MUENCH, in a modified form (Reed L. J. and Muench H., Am. J. Hyg., 27, 493, 1938). The effect on the average bleeding time was determined by the Roskam technique modified by Laporte (Laporte J., Chemotherapia, 3, 62, 1961).

Series [2] in a line: Partition coefficient butanol/water.
The nature of series [3]: Acute toxicity in mice, LD50 (method of Reed and Muench). Type of series: in vivo. The settings on record: mouse, in vivo, po. As for the experimental part:
as §1, §2, §3

The subject of series [4] is average bleeding time (A.B.T.). Put plainly: Effect on the average bleeding time (A.B.T.), Roskam technique modified by Laporte. Format: in vivo. The settings on record: one hour after administration, rabbits. As for the experimental part: 2. Effect on the average bleeding time
as §3

Series [5] relates to average bleeding time (A.B.T.). Put plainly: Activity-time relationship of the decrease in the A.B.T. Type of series: in vivo, rabbits. The settings on record: 5 micromols/kg. The source says:
3. Activity-time relationship

Series [6] has as its system capillary permeability. Put plainly: Protective effect on the capillaries: capillary permeability, BEACH-STEINITZ method in a modified form. The note with it: intraperitoneally, mice; in words. Format: in vivo. The source says: 4. Protective effect on the capillaries

Turning to “Calcium (tertiary butyl)-p-dihydroxybenzenesulphonate”, the LD50 in series [1] (p.o.) is 2,337 mg/kg. Besides, the Partition coefficient butanol/water in series [2] came out at 1.36.

Regarding “Ammonium (tertiary butyl)-p-dihydroxybenzenesulphonate”, the LD50 in series [1] (i.v.) turned out to be 600 mg/kg. Moreover, the Partition coefficient butanol/water in series [2] is 0.42.

Compound `CC(C)(C)c1cc(O)c(S(=O)(=O)O)cc1O` [cyclohexylamine (tertiary butyl)-p-dihydroxybenzenesulphonate] yielded a median lethal dose (LD50) in series [3] of 1000 mg/kg.

Turning to “lithium (tertiary butyl)-p-dihydroxybenzenesulphonate”, in series [1] (i.v.), the LD50 is 1,000 mg/kg. Further, in series [2], the Partition coefficient butanol/water is 1.28.

Consider “Sodium methyl-p-dihydroxybenzenesulphonate”, for which the median lethal dose (LD50) in series [1] (p.o.) is > 1,000 mg/kg. The same compound gave a Partition coefficient butanol/water in series [2] of 0.87.

With “Diethylamine (tertiary butyl)-p-dihydroxybenzenesulphonate”, the “Decrease in the A.B.T. in %” value in series [4] (0.625 micromols/kg) was 7%; in series [4] (1.25 micromols/kg) it was 25%; in series [4] (2.5 micromols/kg) it was 34%; in series [4] (5.0 micromols/kg), 42%; in series [4] (7.05 (sic) micromols/kg), 49%; in series [4] (10.0 micromols/kg), 55%. Besides, the “% decrease in the A.B.T.” value in series [5] (1 hour after intravenous administration) stood at 42%; in series [5] (2 hours after intravenous administration), 43.5%; in series [5] (4 hours after intravenous administration), 41.0%; in series [5] (8 hours after intravenous administration), 34.8%; in series [5] (16 hours after intravenous administration), 33.0%; in series [5] (24 hours after intravenous administration) it was 22.5%. Besides, the “% decrease in the A.B.T.” value in series [5] (48 hours after intravenous administration) stood at 14.0%. Besides, the duration of effect result in series [5] (in words) is on record as “lasts for a long time; also recorded: lasts for a markedly longer time than the products already described hitherto”. Further, the capillary permeability entry in series [6] is reported as “marked decrease in the capillary permeability”. The same compound showed a Partition coefficient butanol/water in series [2] of 2.38.
